The values below come from patent publication US20180258404A1, “METHODS OF GENERATING NEPHRONS FROM HUMAN PLURIPOTENT STEM CELLS” (THE BRIGHAM AND WOMEN'S HOSPITAL, INC., priority 2015, published 2018).

Entries after “also recorded” stand apart in the source; their conditions may differ.

What all share (assay type): cell-based, human
The subject of one series is kidney organoids. The series can be described thus: Aristolochic acid toxicity and nephroprotection model in kidney organoids. Particulars: for PGC-1a expression (real-time quantitative PCR): AA alone or AA with cilostamide. An excerpt:
FIG. 34. […] Representative immunohistochemistry of aristolochic acid (AA) and tenofovir (TFV) treatments. Day 32 Kg-derived organoids. Al/AA treatments for 24H, while all TFV treatments for 48 H. Scale bars, 50 gm. Quantification determined as a percentage of DAP/+ cells. n=3, total DAP/+>1000 for each treatment. (*) indicates p-value<0.05.
FIG. 35. OAT1 inhibition by probenecid protects proximal tubules against AA toxicity. Representative immunohistochemistry of probenecid treatments with AA 2.5 gg/mL. Day 38 Kg-derived organoids. All treatments for 48 H. Scale bars, 50 um. Quantification determined as a percentage of DAPI+ cells. n=3, total DAPI+>1000 for each treatment. (*) indicates p-value<0.05.
FIG. 36. […] Representative immunohistochemistry of cilostamide and sildenafi/treatments with AA 2.5 gg/mL. Day 38 H9-derived organoids. All treatments for 48 H. Scale bars, 50 gm. Quantification determined as a percentage of DAPI+ cells. n=3, total DAPI+>1000 for each treatment. (*) indicates p-value<0.05.
FIG. 37. Real-time quantitative PCR mRNA was extracted from organoid samples and confirmed with Nanodrop. cDNA library Was generated by reverse transcription. AQP-I is prominently expressed on proximal tubules. PGC1-a is the master regulator of mitochondrial biogenesis.

Another series relates to NPCs in 3D culture. The series can be described thus: Growth factor and small molecule screening in 3D culture (LTL+ tubules). To be noted: added in 3D culture from day 10. The procedure:
FIG. 10. Spontaneous differentiation of SIX2+ cells into nephrons and growth factor screening in 3D culture. (a) Staining with PAX8 and LHX1 in hESCs on day 10 of the differentiation. hESCs were differentiated with CHIR 8 µM for 4 days, activn 10 ng/ml for 3 days, and FGF9 10 ng/ml for 3 days. […] Scale bar: 50 μm. (b) Brighfield imaging for hESCs on day 10 and 21 of the differentiation. FGF9 was withdrawn on day 10, and cells were cultured in the basic medium by day 21. Scale bars: 50 μm. (c) Brightfield and immunocytochemistry for LTL and NPHS1 in hESCs on day 28 of the differentiation. Scale bar: 50 μm. (d) The protocol for growth factor screening. Cells were replated to 3D culture on day 10, and the listed growth factors and small molecules were tested. (e) The number of LTL+ tubules in the organoids. […] (f) Brightfield imaging of 3D co-culture with an ureteric bud cell sphere. Scale bar: 100 μm. (g) Whole-mountstaining for LTL in the organoids on day 16. Scale bar: 100 μm. (h) Immunohistochemistry of the organoids on day 16. Scale bars: 50 μm. LTL: lotus tetragonolobus lectin. NPHS1: Nephrin.
To test whether the formation of epithelial structures could be facilitated by 3D culture conditions, on day 10, at the time of FGF9 withdrawal, the Inventors replated NPCs in ultra-low-attachment, round-bottom 96-well plates and cultured them for 1 week. NPCs formed 3D spherical aggregates, one per 96-well, in suspension culture.

The subject of the next series is H9 hESCs. The series can be described thus: Differentiation of hESCs into posterior intermediate mesoderm. The procedure: (§1) hPSCs grown on Geltrex were washed once with PBS (Life Technologies, #10010-049) and dissociated into single cells with Accutase ([…] Technologies, #07920). Cells were then plated at a density of 2-2.4×10^4 (H9) or 1-1.4×10^4 (HDF, 2C) cells/cm^2 onto 24-well tissue culture plates (TPP, #92024) coated with 1% Geltrex in ReproFF2 supplemented with the ROCK inhibitor Y27632 (10 μM) (TOCRIS, #1254) and FGF2 (10 ng/ml). After 72 hours, cells (50% confluent) were briefly washed in PBS and then cultured in basic differentiation medium consisting of Advanced RPMI 1640 (Life Technologies, #12633-020) and 1X L-GlutaMAX (Life Technologies, #35050-061) supplemented with CHIR99021 (8-10 μM) (TOCRIS, #4423) for 4 days to induce late primitive streak cells Noggin (5 ng/ml) was also used for hiPSC differentiation in addition to CHIR (10 μM). To induce posterior intermediate mesoderm, cells were then cultured in Advanced RPMI+1X L-GlutaMAX+activin (10 ng/mL) (R&D, #338-AC-050) for 3 days. For induction of nephron progenitor cells, the media was then changed to Advanced RPMI+1X L-GlutaMAX+FGF9 (10 ng/ml) (R&D, #273-F9-025/CF) for 7 days. CHIR (3 μM) was added to the media from day 9 to 11 of differentiation to induce renal vesicles. On day 14, cells were switched to the basic differentiation medium and cultured for an additional 7 to 14 days (total of 21 to 28 days). The medium was replaced every 2 or 3 days. A variety of growth factors and small molecules were tested for differentiation.
PAX2 and LHX1 were not expressed (FIG. 1f), confirming that activin treatment of late primitive streak cells produced posterior and not anterior IM cells.
As the posterior primitive streak is induced by a BMP4 signal gradient, the Inventors hypothesized that CHIR treatment of HDF-α hiPSCs might induce endogenous BMP4 production that promotes differentiation into the posterior primitive streak and subsequently lateral plate mesoderm. […] Optimizing the protocol for individual cell lines based on their endogenous BMP4 production maximized the efficiency of generating posterior IM.

The next series has as its system HDF-α hiPSCs. The series can be described thus: Differentiation of hiPSCs into posterior intermediate mesoderm. To be noted: activin after CHIR plus noggin 5 ng/mL in the first step. The procedure:
as §1, with “The medium was replaced every 2 or 3 days. A variety of growth factors and small molecules were tested for differentiation.” left out

For `COc1cccc2c1cc([N+](=O)[O-])c1c(C(=O)O)cc3c(c12)OCO3` [AA, aristolochic acid], the “PGC-1a expression (real-time quantitative PCR)” value in the series with kidney organoids is on record as “downregulated”. Besides, in the series with kidney organoids (AA treatments for 24H, day 32 organoids), the “kidney damage biomarkers by immunohistochemistry” value was “dose-dependent upregulation of kidney damage biomarkers”.
As for `O=C(Nc1cccc2cccnc12)c1ccc(N2C(=O)[C@@H]3[C@H](C2=O)[C@@H]2C=C[C@H]3C2)cc1` [IWR-1], the “number of LTL+ tubules in the organoids” value in the series with NPCs in 3D culture is “did not significantly increase the number of LTL+ tubules”.
As to `CCCN(CCC)S(=O)(=O)c1ccc(C(=O)O)cc1` [Probenecid, probenecid], in the series with kidney organoids (Probenecid 10 LIM with AA 2.5 gg/mL, 48 H, day 38 organoids), the “nephroprotection against AA” value was “provided strongest nephroprotection against AA”. Further, in the series on kidney organoids (probenecid alone, 48 H, day 38 organoids), the damage to organoids result is on record as “causes no damage to organoids”.
`NC(=O)c1ccc(-c2nc(-c3ccc4c(c3)OCO4)c(-c3ccccn3)[nH]2)cc1` [SB431542]: the “number of LTL+ tubules in the organoids” value in the series on NPCs in 3D culture is recorded as “did not significantly increase the number of LTL+ tubules”.
Take `CN(C(=O)CCCOc1ccc2[nH]c(=O)ccc2c1)C1CCCCC1` [cilostamide]: the “PGC-1a expression (real-time quantitative PCR)” value with kidney organoids is on record as “protected”. Moreover, in the series on kidney organoids (cilostamide with AA), the “nephroprotection against AA (real-time quantitative PCR, AQP-I)” value was “dose-dependent nephroprotection against AA, significant preservation of proximal tubules”. Moreover, the “mitochondrial biogenesis and protection” value in the series with kidney organoids (cilostamide with AA 2.5 gg/mL, 48 H, day 38 H9-derived organoids) was “increases mitochondrial biogenesis and protection in AA-toxicity model”.
Turning to “HGF: growth factor tested in 3D culture screening”, the “number of LTL+ tubules in the organoids” value in the series with NPCs in 3D culture is recorded as “did not significantly increase the number of LTL+ tubules; also recorded: showed a tendency to increase LTL+ tubules”.
On the same count and under the same terms, the value for “IGF-1: growth factor tested in 3D culture screening” was “did not significantly increase the number of LTL+ tubules”.
For the molecule “JAG1: growth factor tested in 3D culture screening”, the “number of LTL+ tubules in the organoids” value in the series with NPCs in 3D culture is on record as “did not significantly increase the number of LTL+ tubules”.

B1: BMP7: growth factor tested in 3D culture screening (protein, UniProt P18075 293-431, looked up)
Bone morphogenetic protein 7: STGSKQRSQNRSKTPKNQEALRMANVAENSSSDQRQACKKHELYVSFRDLGWQDWIIAPEGYAAYYCEGECAFPLNSYMNATNHAIVQTLVHFINPETVPKPCCAPTQLNAISVLYFDDSSNVILKKYRNMVVRACGCH
For B1, the “number of LTL+ tubules in the organoids” value with NPCs in 3D culture is “did not significantly increase the number of LTL+ tubules”.

B2: BMP4: growth factor; posteriorizes the primitive streak (protein, UniProt P12644 293-408, looked up)
Bone morphogenetic protein 4: SPKHHSQRARKKNKNCRRHSLYVDFSDVGWNDWIVAPPGYQAFYCHGDCPFPLADHLNSTNHAIVQTLVNSVNSSIPKACCVPTELSAISMLYLDEYDKVVLKNYQEMVVEGCGCR
For B2, the “FOXF1 expression at day 4” value with H9 hESCs (BMP4 1 ng/mL added to CHIR) is reported as “resulted in FOXF1 expression at day 4”. The “WT1 expression on day 7” value in the series on H9 hESCs (added to CHIR in the first step, hESCs) is recorded as “suppression of WT1 expression on day 7”.

B3: WNT4: growth factor tested in 3D culture screening (protein, UniProt P56705 23-351, looked up)
Protein Wnt-4: SNWLYLAKLSSVGSISEEETCEKLKGLIQRQVQMCKRNLEVMDSVRRGAQLAIEECQYQFRNRRWNCSTLDSLPVFGKVVTQGTREAAFVYAISSAGVAFAVTRACSSGELEKCGCDRTVHGVSPQGFQWSGCSDNIAYGVAFSQSFVDVRERSKGASSSRALMNLHNNEAGRKAILTHMRVECKCHGVSGSCEVKTCWRAVPPFRQVGHALKEKFDGATEVEPRRVGSSRALVPRNAQFKPHTDEDLVYLEPSPDFCEQDMRSGVLGTRGRTCNKTSKAIDGCELLCCGRGFHTAQVELAERCSCKFHWCCFVKCRQCQRLVELHTCR
As for B3, in the series on NPCs in 3D culture, the “number of LTL+ tubules in the organoids” value is “did not significantly increase the number of LTL+ tubules”.

B4: mouse Wnt9b: growth factor tested in 3D culture screening (protein, UniProt O35468 24-359, looked up)
Protein Wnt-9b: AAYFGLTGREVLTPFPGLGTAAAPAQAGAHLKQCDLLKLSRRQKQLCRREPGLAETLRDAAHLGLLECQFQFRQERWNCSLEGRTGLLQRGFKETAFLYAVSAAALTHALARACSAGRMERCTCDDSPGLESRQAWQWGVCGDNLKYSTKFLSNFLGPKRGSKDLRARADAHNTHVGIKAVKSGLRTTCKCHGVSGSCAVRTCWKQLSPFRETGQVLKLRYDTAVKVSSATNEALGRLELWAPAKPGGPAKGLAPRPGDLVYMEDSPSFCRPSKYSPGTAGRVCSRDSSCSSLCCGRGYDTQSRMVVFSCHCQVQWCCYVECQQCAQQELVYTCKR
For B4, in the series with NPCs in 3D culture, the “number of LTL+ tubules in the organoids” value is given as “did not significantly increase the number of LTL+ tubules”.

B5: activin: growth factor used to induce posterior intermediate mesoderm (protein, UniProt P08476 311-426, looked up)
Inhibin beta A chain: GLECDGKVNICCKKQFFVSFKDIGWNDWIIAPSGYHANYCEGECPSHIAGTSGSSLSFHSTVINHYRMRGHSPFANLKSCCVPTKLRPMSMLYYDDGQNIIKKDIQNMIVEECGCS
modifications: Inhibin beta A chain
notes: growth factor used to induce posterior intermediate mesoderm
B5: the “efficiency of generation of WT1+HOXD11+ posterior IM cells” value in the series with HDF-α hiPSCs is listed as 80-90%. Besides, in the series with H9 hESCs (activin 10 ng/mL between days 4 and 7, after CHIR 8 μM for 4 days), the “efficiency of induction of WT1+HOXD11+ cells” value is given as around 90%.
